Measurements reported in patent US4639370A, “Pharmaceutical composition” (Farmitalia Carlo Erba S.p.A., priority 1984, dated 1987).
In brackets after ≈: the same amount, converted by molar mass. Like-named read-outs stand apart in the source and are kept apart here.

Legend:
[1] = Text: The completeness of the amorphization process can be checked by the absence in the Differential Scanning Calorimetry thermogram of the resulting drug-polymer system of the transition peak relative to the solid/liquid endothermic transition of the crystalline drug. The absence of the transition peak means that the enthalpy of melting is practically zero.
This transformation is indicated by the shifting of the original endothermic peak of the DSC thermogram to lower temperatures, which leads to higher dissolution rates and bioavailability.
Differential Scanning Calorimetry Data

[2] = buffer, pH 2
Method: (§1) The flasks were placed in a shaking thermostated apparatus and aliquots of sample solutions were taken by filtering through a Millipore membrane.
The indoprofen concentrations were determined by spectrophotometry (λ=280 nm).

[3] = Solubility of MAP systems, pH 5.5 phosphate buffer, 37° C.; type: physicochemical
Method: The flasks were placed in a shaking thermostated apparatus and aliquots of sample solutions were taken by filtering through a Millipore membrane. The concentration of MAP in the filtered aliquot was determined both by spectrophotometry (SP 8-100, Pye Unicam) after dilution with methanol, λ=247 nm, and by HPLC (column: Spherisorb S30 D52, Phase Sep.; mobile phase acetonitrile/water 70/30 v/v; flow rate 1 ml/min; U.V. detection, λ=242 nm), after dilution with acetonitrile.

[4] = Solubility of griseofulvin systems, pH 7.4 buffer, 37° C.
Method: as §1
The griseofulvin concentrations were determined by spectrophotometry (λ=294 nm).

[5] = Solubility of indomethacin systems, pH 6.8 buffer, 37° C.; type: physicochemical
Method: The indomethacin concentrations were determined by spectrophotometry (λ=317 nm).

## CC(C(=O)O)c1ccc(N2Cc3ccccc3C2=O)cc1 (stereo not drawn) [Pure crystalline Indoprofen, indoprofen]
[1]
  Melting Point: 212-215 °C
[1]; indoprofen systems, Table 2
  % Residual of Original Heat of Fusion: 100.0%
  Heat of Fusion: 134.6 J/g
[2]; 5 min
  Solubility (indoprofen concentration): 1.6 µg/mL (≈ 5.69 µM)
[2]; 0.25 h
  Solubility (indoprofen concentration): 3.0 µg/mL (≈ 10.7 µM)
[2]; 1 h
  Solubility (indoprofen concentration): 4.8 µg/mL (≈ 17.1 µM)
[2]; 24 h
  Solubility (indoprofen concentration): 10.3 µg/mL (≈ 36.6 µM)

## CC(=O)O[C@]1(C(C)=O)CC[C@H]2[C@@H]3C[C@H](C)C4=CC(=O)CC[C@]4(C)[C@H]3CC[C@@]21C [Pure crystalline MAP, medroxyprogesterone acetate]
[1]
  Melting Point: 205-206 °C
  melting point: 205.6 °
[1]; MAP systems, Table 1
  % Residual of Original Heat of Fusion: 100.0%
  Heat of Fusion: 88.0 J/g
[3]; 5 min
  Solubility (MAP dissolved): < 0.04 µg/mL
[3]; 15 min
  Solubility (MAP dissolved): 0.32 µg/mL
[3]; 1 hr
  Solubility (MAP dissolved): 0.68 µg/mL
[3]; 6 hrs
  Solubility (MAP dissolved): 1.00 µg/mL

## COC1=CC(=O)C[C@@H](C)[C@]12Oc1c(Cl)c(OC)cc(OC)c1C2=O [Pure crystalline Griseofulvin, griseofulvin]
[1]
  Melting Point: 218.8 °C
[1]; griseofulvin systems, Table 3
  % Residual of Original Heat of Fusion: 100%
  Heat of Fusion: 119.22 J/g
[4]; 5 min
  Solubility (griseofulvin concentration): 9.1 µg/mL (≈ 25.8 µM)
[4]; 15 min
  Solubility (griseofulvin concentration): 11.0 µg/mL (≈ 31.2 µM)
[4]; 1 hr
  Solubility (griseofulvin concentration): 10.9 µg/mL (≈ 30.9 µM)
[4]; 3 hrs
  Solubility (griseofulvin concentration): 11.3 µg/mL (≈ 32 µM)
[4]; 24 hrs
  Solubility (griseofulvin concentration): 14.9 µg/mL (≈ 42.2 µM)

## COc1ccc2c(c1)c(CC(=O)O)c(C)n2C(=O)c1ccc(Cl)cc1 [Pure crystalline Indomethacin, indomethacin]
[1]; indomethacin systems, Table 4
  Heat of Fusion: 110.8 J/g
  Melting Point: 160.2 °C
[5]; 5 min
  Solubility (indomethacin concentration): 230.2 µg/mL (≈ 643 µM)
[5]; 15 min
  Solubility (indomethacin concentration): 358.2 µg/mL (≈ 1000 µM)
[5]; 1 hr
  Solubility (indomethacin concentration): 482.1 µg/mL (≈ 1350 µM)
[5]; 3 hrs
  Solubility (indomethacin concentration): 502.8 µg/mL (≈ 1410 µM)
[5]; 24 hrs
  Solubility (indomethacin concentration): 502.0 µg/mL (≈ 1400 µM)
